ChEMBL document CHEMBL1201862, “PubChem BioAssay data set” (2004)
Calls of active or inactive are those of the source. For most assays here, no stated cut-off is given here; in the data, actives have a measured IC50 and inactives only a lower limit.

Tests used:
[1] = biological target: T1, High affinity choline transporter 1 (Homo sapiens, UniProt Q9GZV3); test: human choline transporter potentiators, potency – cell-based, 10-point CRC, membrane potential dye, dose response (AID 602376); type: functional
T1 sequence (Q9GZV3 whole entry): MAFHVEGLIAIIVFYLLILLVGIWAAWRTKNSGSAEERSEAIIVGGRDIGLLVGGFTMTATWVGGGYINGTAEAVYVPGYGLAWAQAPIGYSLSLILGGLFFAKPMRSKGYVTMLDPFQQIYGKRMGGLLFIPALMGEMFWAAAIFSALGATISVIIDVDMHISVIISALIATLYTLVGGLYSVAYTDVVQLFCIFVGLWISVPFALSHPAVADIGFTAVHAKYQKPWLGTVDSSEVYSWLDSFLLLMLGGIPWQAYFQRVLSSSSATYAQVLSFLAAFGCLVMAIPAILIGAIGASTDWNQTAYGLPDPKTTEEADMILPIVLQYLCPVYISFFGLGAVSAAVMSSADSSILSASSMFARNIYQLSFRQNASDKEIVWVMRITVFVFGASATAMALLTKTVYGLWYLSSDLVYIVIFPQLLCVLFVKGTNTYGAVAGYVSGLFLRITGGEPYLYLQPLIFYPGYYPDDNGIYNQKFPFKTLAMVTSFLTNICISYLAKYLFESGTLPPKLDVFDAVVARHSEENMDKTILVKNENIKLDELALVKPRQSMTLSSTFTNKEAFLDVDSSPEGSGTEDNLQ

[2] = Trypanosoma cruzi growth suppression in host cells – NIH3T3 host cells, beta-gal luminescence, confirmation (AID 2044); type: functional, cell-based;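 further: intracellular parasites grown in NIH/3T3 mouse fibroblasts as host cells; luminescent beta-galactosidase reporter signal from transgenic T. cruzi replicating inside host cells; inhibitors lower the luminescence signal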
[3] = NIH3T3 cell viability loss – ATP luminescence, mouse fibroblasts, counter-screen, dose response (AID 2010); type: functional, cell-based;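 further: cells exposed to compound for about 90 hours before reading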
[4] = biological target: T2, Sentrin-specific protease 6 (Homo sapiens, UniProt Q9GZR1); test: SAR Analysis of small molecule inhibitors of Sentrin-specific protease 6 (SENP6) using a Luminescent assay. [Related pubchem assays (depositor defined):AID2582, AID2599]; type: functional
T2 sequence (Q9GZR1 whole entry): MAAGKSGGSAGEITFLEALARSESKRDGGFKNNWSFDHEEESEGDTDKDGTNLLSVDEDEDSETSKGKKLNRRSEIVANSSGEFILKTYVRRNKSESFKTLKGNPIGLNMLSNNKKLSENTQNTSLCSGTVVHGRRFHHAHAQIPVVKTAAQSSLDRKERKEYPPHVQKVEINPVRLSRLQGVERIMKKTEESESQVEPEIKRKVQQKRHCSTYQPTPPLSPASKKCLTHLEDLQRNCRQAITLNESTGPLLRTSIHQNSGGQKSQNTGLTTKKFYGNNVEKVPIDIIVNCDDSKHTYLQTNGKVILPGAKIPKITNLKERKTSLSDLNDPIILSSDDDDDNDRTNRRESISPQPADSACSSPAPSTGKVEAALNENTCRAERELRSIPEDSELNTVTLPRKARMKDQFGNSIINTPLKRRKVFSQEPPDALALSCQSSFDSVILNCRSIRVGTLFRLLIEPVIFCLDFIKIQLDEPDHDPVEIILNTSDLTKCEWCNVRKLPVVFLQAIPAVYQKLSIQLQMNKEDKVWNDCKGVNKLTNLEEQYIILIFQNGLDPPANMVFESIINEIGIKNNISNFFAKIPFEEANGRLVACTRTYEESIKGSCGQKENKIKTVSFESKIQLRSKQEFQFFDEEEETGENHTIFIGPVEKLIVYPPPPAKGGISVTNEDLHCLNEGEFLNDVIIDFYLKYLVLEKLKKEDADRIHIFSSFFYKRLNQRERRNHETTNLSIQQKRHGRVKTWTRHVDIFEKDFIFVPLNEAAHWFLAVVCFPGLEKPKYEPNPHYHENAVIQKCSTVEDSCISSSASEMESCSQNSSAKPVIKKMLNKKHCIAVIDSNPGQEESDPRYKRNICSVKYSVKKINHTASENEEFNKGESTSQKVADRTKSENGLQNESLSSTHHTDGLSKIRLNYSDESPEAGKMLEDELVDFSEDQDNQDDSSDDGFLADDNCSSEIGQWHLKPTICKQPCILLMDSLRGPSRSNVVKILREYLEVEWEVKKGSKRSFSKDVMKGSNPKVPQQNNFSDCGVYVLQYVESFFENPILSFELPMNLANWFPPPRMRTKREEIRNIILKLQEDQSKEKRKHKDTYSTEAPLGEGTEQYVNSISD

[5] = biological target: T3, Sentrin-specific protease 8 (Homo sapiens, UniProt Q96LD8); test: inhibition of human SENP8 cleavage activity – biochemical, luminescence, SAR follow-up (AID 504501); type: functional
T3 sequence (Q96LD8 whole entry): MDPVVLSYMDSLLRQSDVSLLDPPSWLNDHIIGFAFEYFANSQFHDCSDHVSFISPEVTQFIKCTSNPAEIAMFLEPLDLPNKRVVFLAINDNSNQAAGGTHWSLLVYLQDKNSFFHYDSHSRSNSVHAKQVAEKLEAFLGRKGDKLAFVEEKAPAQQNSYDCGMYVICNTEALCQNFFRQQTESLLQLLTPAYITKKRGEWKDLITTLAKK

[6] = biological target: T4, Sentrin-specific protease 7 (Homo sapiens, UniProt Q9BQF6); test: inhibition of human SENP7 cleavage activity – biochemical, luminescence, SAR follow-up (AID 504497); type: functional
T4 sequence (Q9BQF6 whole entry): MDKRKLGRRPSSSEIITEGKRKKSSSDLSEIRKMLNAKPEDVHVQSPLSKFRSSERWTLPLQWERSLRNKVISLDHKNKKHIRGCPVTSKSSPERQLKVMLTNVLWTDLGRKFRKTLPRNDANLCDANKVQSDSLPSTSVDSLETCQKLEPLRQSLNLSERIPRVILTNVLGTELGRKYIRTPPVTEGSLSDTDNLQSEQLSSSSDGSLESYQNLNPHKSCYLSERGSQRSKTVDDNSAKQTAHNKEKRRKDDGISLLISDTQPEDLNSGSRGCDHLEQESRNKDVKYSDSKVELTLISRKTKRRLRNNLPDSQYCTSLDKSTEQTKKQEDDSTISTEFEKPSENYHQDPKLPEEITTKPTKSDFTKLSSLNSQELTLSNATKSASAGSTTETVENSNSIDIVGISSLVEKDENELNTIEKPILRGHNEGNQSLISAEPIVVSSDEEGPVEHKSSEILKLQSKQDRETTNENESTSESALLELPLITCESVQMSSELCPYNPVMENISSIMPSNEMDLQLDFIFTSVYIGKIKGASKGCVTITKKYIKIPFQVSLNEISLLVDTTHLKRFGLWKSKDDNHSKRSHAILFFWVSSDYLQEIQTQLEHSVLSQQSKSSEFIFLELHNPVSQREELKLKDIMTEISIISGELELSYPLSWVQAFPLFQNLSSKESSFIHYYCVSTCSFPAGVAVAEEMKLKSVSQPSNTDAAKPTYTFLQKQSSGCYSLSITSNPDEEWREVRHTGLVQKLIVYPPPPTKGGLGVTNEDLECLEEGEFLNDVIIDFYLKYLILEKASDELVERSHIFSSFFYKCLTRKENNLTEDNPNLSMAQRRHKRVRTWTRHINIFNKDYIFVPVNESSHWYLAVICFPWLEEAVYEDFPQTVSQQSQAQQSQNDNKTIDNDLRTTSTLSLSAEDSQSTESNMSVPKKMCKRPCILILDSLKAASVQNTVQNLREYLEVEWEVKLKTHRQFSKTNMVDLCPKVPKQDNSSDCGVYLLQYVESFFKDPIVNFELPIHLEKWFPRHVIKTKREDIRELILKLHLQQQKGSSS

Caspase-3 [7] = biological target: T5, Caspase-3 (Homo sapiens, UniProt P42574); test: SAR Analysis of small molecule inhibitors of Sentrin-specific proteases (SENPs) using a Caspase-3 Selectivity assay. [Related pubchem assays (depositor defined):AID2540, AID2599, AID434973, AID489001]; type: functional
T5 sequence (P42574 whole entry): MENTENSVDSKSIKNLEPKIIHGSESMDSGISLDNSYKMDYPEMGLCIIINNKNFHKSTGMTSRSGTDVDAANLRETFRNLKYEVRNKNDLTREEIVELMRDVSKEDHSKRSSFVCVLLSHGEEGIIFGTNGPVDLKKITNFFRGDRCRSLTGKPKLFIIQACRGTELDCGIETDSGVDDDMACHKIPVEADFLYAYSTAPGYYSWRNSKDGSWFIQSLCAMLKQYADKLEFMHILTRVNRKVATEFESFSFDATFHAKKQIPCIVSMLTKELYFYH

Phospholipase D2 = Phospholipase D2 (Homo sapiens, UniProt O14939); test: cellular phospholipase D2 inhibition IC50 – cell-based, dose response (AID 602147); type: functional;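 further: cellular assay in HEK293 cells overexpressing GFP-tagged PLD2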
Phospholipase D1 = biological target: T6, Phospholipase D1 (Homo sapiens, UniProt Q13393); test: cellular phospholipase D1 inhibition IC50 – cell-based, dose response (AID 602151); type: functional;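 further: cellular PLD1 assay in Calu-1 cells stimulated with PMA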
T6 sequence (Q13393 whole entry): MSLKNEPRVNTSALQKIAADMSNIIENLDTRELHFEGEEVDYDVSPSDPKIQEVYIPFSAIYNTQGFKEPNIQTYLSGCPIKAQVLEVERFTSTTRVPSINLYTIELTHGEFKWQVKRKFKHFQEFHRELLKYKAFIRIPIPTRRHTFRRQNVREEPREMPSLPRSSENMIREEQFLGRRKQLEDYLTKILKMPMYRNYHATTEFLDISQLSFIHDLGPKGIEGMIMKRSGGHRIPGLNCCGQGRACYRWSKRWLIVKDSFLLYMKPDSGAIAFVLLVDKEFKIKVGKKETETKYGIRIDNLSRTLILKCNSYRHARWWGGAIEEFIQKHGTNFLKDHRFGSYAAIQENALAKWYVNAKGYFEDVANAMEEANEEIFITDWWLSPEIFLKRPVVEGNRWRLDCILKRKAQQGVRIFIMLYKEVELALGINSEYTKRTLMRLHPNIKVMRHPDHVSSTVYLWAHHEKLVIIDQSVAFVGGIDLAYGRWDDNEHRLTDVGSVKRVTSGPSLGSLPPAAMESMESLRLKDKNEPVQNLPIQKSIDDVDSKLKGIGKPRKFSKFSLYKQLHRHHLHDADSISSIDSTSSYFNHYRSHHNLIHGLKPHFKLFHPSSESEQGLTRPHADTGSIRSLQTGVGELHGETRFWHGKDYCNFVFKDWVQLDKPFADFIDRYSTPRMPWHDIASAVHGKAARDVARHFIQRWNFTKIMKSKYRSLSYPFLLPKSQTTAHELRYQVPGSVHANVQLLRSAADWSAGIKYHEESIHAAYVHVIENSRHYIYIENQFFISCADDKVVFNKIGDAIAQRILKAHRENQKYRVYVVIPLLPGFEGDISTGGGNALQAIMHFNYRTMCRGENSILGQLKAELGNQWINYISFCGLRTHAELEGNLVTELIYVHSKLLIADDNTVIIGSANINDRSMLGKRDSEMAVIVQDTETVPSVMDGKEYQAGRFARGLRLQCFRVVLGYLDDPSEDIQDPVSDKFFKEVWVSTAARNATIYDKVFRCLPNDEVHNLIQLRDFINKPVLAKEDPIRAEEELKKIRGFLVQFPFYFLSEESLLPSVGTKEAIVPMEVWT

[8] = biological target: T4, Sentrin-specific protease 7; test: inhibition of human SENP7 cleavage activity – biochemical, luminescence, set 2, SAR follow-up (AID 588600); type: functional
[9] = biological target: T3, Sentrin-specific protease 8; test: inhibition of sentrin protease 8 – biochemical, luminescence, set 2, SAR follow-up (AID 588601); type: functional
Caspase-3 [10] = biological target: T5, Caspase-3; test: inhibition of recombinant caspase-3 activity – biochemical, luminescence, set 2, selectivity assay for SENP protease inhibitor project, SAR follow-up (AID 588599); type: functional
[11] = biological target: T2, Sentrin-specific protease 6; test: inhibition of human SENP6 catalytic domain – biochemical, luminescence, set 2, SAR follow-up (AID 588598); type: functional
[12] = biological target: Melanin-concentrating hormone receptor 1 (Homo sapiens, UniProt Q99705); test: Late-stage fluorescence-based counterscreen for antagonists of the G-protein coupled receptor 7 (GPR7): cell-based dose response assay to identify antagonists of the melanin-concentrating hormone receptor 1 (MCHR1) Set 6.; type: functional
Chain of Melanin-concentrating hormone receptor 1 (Q99705 whole entry): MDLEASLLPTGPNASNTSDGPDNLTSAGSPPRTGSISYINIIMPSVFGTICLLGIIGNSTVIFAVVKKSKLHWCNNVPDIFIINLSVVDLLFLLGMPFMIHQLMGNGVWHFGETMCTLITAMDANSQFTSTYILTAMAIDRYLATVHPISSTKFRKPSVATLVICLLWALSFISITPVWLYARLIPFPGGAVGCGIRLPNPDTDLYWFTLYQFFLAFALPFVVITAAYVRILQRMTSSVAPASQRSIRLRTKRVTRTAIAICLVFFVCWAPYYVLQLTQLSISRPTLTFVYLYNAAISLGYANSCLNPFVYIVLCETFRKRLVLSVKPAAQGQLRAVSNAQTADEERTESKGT

Chain of Phospholipase D2 (O14939 whole entry): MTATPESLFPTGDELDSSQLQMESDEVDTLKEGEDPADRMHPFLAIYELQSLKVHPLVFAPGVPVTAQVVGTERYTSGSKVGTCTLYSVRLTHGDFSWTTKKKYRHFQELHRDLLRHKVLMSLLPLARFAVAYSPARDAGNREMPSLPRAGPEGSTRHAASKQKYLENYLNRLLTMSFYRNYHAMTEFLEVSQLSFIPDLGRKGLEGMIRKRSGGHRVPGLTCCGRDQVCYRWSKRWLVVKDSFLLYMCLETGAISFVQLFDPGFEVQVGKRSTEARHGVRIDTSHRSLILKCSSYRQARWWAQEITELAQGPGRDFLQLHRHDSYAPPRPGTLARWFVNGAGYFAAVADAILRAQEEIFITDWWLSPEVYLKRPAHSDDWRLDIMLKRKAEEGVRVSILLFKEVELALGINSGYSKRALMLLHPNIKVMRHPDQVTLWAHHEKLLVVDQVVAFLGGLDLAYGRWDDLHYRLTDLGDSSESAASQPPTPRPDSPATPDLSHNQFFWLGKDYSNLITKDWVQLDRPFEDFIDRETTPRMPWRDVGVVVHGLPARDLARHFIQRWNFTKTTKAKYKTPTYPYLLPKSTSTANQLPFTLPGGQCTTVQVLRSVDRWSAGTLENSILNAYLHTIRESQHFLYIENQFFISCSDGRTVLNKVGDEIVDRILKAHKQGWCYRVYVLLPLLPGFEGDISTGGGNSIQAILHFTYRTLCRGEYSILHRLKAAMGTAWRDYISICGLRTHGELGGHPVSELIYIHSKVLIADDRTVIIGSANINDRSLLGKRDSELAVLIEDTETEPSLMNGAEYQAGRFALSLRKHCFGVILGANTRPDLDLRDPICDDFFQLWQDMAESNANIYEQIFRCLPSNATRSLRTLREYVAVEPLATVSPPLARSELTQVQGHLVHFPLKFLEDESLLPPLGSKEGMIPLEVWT

CCCCc1n(C)c2ccccc2[n+]1CC(=O)c1ccc(Cl)cc1
EC50 [1]: 9.58 µM (active)

CCN(CC)S(=O)(=O)c1cnccc1N1CCN(c2cccc(Cl)c2)CC1
EC50 [1]: 24.7 µM (active)
EC50 [2]: < 0.1 µM (active)
EC50 [3]: > 60 µM (not active)
EC50 (cells): 0.268 µM (active)

CCOc1ccc2nc(N(Cc3cccnc3)C(=O)c3ccc(Cl)s3)sc2c1
IC50 [4]: > 99 µM (inactive)
IC50 [5]: > 99 µM (inactive)
IC50 [6]: > 99 µM (inactive)
IC50 (Caspase-3 [7]): > 99 µM (inactive)

C[C@@H](CN1CCC(n2c(=O)[nH]c3ccccc32)CC1)NC(=O)C1C[C@H]1c1ccccc1 (stereo partly specified)
IC50 (Phospholipase D2): 14.5 µM (active)
IC50 (Phospholipase D1): 0.088 µM (active)

Fc1ccc(-c2nc(/C=C/c3ccccc3)no2)cc1
IC50 [8]: 11.1 µM (active)
IC50 [4]: 32 µM (active)
IC50 [5]: 33 µM (active)
IC50 [6]: 14 µM (active)
IC50 [9]: 11.7 µM (active)
IC50 (Caspase-3 [10]): 33.8 µM (active)
IC50 (Caspase-3 [7]): 37 µM (active)
IC50 [11]: 11.7 µM (active)

COc1cc(/C=C(/C#N)c2nc(-c3ccc(C)cc3)no2)ccc1OCc1cccc(C(F)(F)F)c1
IC50 [8]: > 99 µM (inactive)
IC50 [9]: > 99 µM (inactive)
IC50 (Caspase-3 [10]): > 99 µM (inactive)
IC50 [11]: > 99 µM (inactive)

C[C@@H](CN1CCC(n2c(=O)[nH]c3ccccc32)CC1)NC(=O)c1cc2ccccc2[nH]1
IC50 (Phospholipase D2): 0.066 µM (active)
IC50 (Phospholipase D1): 0.001 µM (active)

COc1ccc(Oc2c(Cl)cnn(CC(=O)N3c4ccccc4CC3C)c2=O)cc1 (stereo unspecified)
IC50 [12]: 0.781 µM (active)
